PubChem BioAssay (NCI)
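Dose response: 5 concentrations. Exposure: 48 h. Format: 96-well plates. Endpoint: linear interpolation; highest concentration if not reached. The concentration for 50% growth inhibition is given as GI50. TGI marks complete inhibition of growth.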

Assays:
Assay in all cases: growth of human tumour cells (NCI), 48 h
MOLT-4 leukemia = tested on: MOLT-4 leukemia
OVCAR-8 ovarian = tested on: OVCAR-8 ovarian
SN12C renal = tested on: SN12C renal
K-562 leukemia = tested on: K-562 leukemia
BT-549 breast = tested on: BT-549 breast
A549 NSCLC = tested on: A549 NSCLC
OVCAR-5 ovarian = tested on: OVCAR-5 ovarian
UACC-62 melanoma = tested on: UACC-62 melanoma
HCC-2998 colon = tested on: HCC-2998 colon
TK-10 renal = tested on: TK-10 renal
HL-60(TB) leukemia = tested on: HL-60(TB) leukemia
HCT-116 colon = tested on: HCT-116 colon
OVCAR-4 ovarian = tested on: OVCAR-4 ovarian
KM12 colon = tested on: KM12 colon
EKVX NSCLC = tested on: EKVX NSCLC
NCI/ADR-RES ovarian = tested on: NCI/ADR-RES ovarian
MCF7 breast = tested on: MCF7 breast
SF-539 CNS = tested on: SF-539 CNS
CAKI-1 renal = tested on: CAKI-1 renal
UO-31 renal = tested on: UO-31 renal
HT29 colon = tested on: HT29 colon
A498 renal = tested on: A498 renal
SK-OV-3 ovarian = tested on: SK-OV-3 ovarian
HS 578T breast = tested on: HS 578T breast
SK-MEL-5 melanoma = tested on: SK-MEL-5 melanoma
NCI-H23 lung = tested on: NCI-H23 lung
M14 melanoma = tested on: M14 melanoma
MDA-MB-468 breast = tested on: MDA-MB-468 breast
SF-268 CNS = tested on: SF-268 CNS
HOP-92 NSCLC = tested on: HOP-92 NSCLC
SW-620 colon = tested on: SW-620 colon
RPMI-8226 leukemia = tested on: RPMI-8226 leukemia
U251 CNS = tested on: U251 CNS
SF-295 CNS = tested on: SF-295 CNS
IGROV1 ovarian = tested on: IGROV1 ovarian
786-0 renal = tested on: 786-0 renal
SNB-19 CNS = tested on: SNB-19 CNS
SK-MEL-2 melanoma = tested on: SK-MEL-2 melanoma
COLO 205 colon = tested on: COLO 205 colon
CCRF-CEM leukemia = tested on: CCRF-CEM leukemia
DU-145 prostate = tested on: DU-145 prostate
UACC-257 melanoma = tested on: UACC-257 melanoma
OVCAR-3 ovarian = tested on: OVCAR-3 ovarian
PC-3 prostate = tested on: PC-3 prostate
NCI-H460 lung = tested on: NCI-H460 lung
NCI-H522 lung = tested on: NCI-H522 lung
NCI-H226 lung = tested on: NCI-H226 lung
HCT-15 colon = tested on: HCT-15 colon
SR leukemia = tested on: SR leukemia
SNB-75 CNS = tested on: SNB-75 CNS
SK-MEL-28 melanoma = tested on: SK-MEL-28 melanoma
T-47D breast = tested on: T-47D breast
MDA-MB-435 = tested on: MDA-MB-435
RXF 393 renal = tested on: RXF 393 renal
MALME-3M melanoma = tested on: MALME-3M melanoma
HOP-62 NSCLC = tested on: HOP-62 NSCLC
ACHN renal = tested on: ACHN renal
LOX IMVI melanoma = tested on: LOX IMVI melanoma
MDA-MB-231 breast = tested on: MDA-MB-231 breast

CCOP(=O)(OCC)O[C@H]1CC[C@]2(C)[C@H]3CC[C@@H]4[C@@H]([C@](C)(O)CCC=C(C)C)CC[C@@]4(C)[C@]3(C)CC[C@H]2C1(C)C
GI50 (MOLT-4 leukemia): 8.07 µM | TGI (MOLT-4 leukemia): 29.1 µM | GI50 (OVCAR-8 ovarian): 13.2 µM | TGI (OVCAR-8 ovarian): 30.8 µM | GI50 (SN12C renal): 11.8 µM | TGI (SN12C renal): 24 µM | GI50 (K-562 leukemia): 6.99 µM | TGI (K-562 leukemia): 98.8 µM | GI50 (BT-549 breast): 14.9 µM | TGI (BT-549 breast): 29.1 µM | GI50 (A549 NSCLC): 12.6 µM | TGI (A549 NSCLC): 30.3 µM | GI50 (OVCAR-5 ovarian): 12.7 µM | TGI (OVCAR-5 ovarian): 25.2 µM | GI50 (UACC-62 melanoma): 10.7 µM | TGI (UACC-62 melanoma): 22.6 µM | GI50 (HCC-2998 colon): 13.4 µM | TGI (HCC-2998 colon): 26 µM | GI50 (TK-10 renal): 13.5 µM | TGI (TK-10 renal): 27.7 µM | GI50 (HL-60(TB) leukemia): 8.49 µM | TGI (HL-60(TB) leukemia): 33.2 µM | GI50 (HCT-116 colon): 5.91 µM | TGI (HCT-116 colon): 21.7 µM | GI50 (OVCAR-4 ovarian): 13.4 µM | TGI (OVCAR-4 ovarian): 32 µM | GI50 (KM12 colon): 15.4 µM | TGI (KM12 colon): 33.2 µM | GI50 (EKVX NSCLC): 10.1 µM | TGI (EKVX NSCLC): 21.6 µM | GI50 (NCI/ADR-RES ovarian): 14.7 µM | TGI (NCI/ADR-RES ovarian): 28.5 µM | GI50 (MCF7 breast): 7.26 µM | TGI (MCF7 breast): 20.5 µM | GI50 (SF-539 CNS): 13.2 µM | TGI (SF-539 CNS): 25.8 µM | GI50 (CAKI-1 renal): 10.3 µM | TGI (CAKI-1 renal): 22.8 µM | GI50 (UO-31 renal): 10.1 µM | TGI (UO-31 renal): 21.6 µM | GI50 (HT29 colon): 7.35 µM | TGI (HT29 colon): 23.2 µM | GI50 (A498 renal): 12.4 µM | TGI (A498 renal): 25.1 µM | GI50 (SK-OV-3 ovarian): 12.3 µM | TGI (SK-OV-3 ovarian): 27 µM | GI50 (HS 578T breast): 11.5 µM | TGI (HS 578T breast): 31.8 µM | GI50 (SK-MEL-5 melanoma): 10.4 µM | TGI (SK-MEL-5 melanoma): 22.2 µM | GI50 (NCI-H23 lung): 10.1 µM | TGI (NCI-H23 lung): 21.7 µM | GI50 (M14 melanoma): 14.9 µM | TGI (M14 melanoma): 35 µM | GI50 (MDA-MB-468 breast): 5.1 µM | TGI (MDA-MB-468 breast): 18.2 µM | GI50 (SF-268 CNS): 12.7 µM | TGI (SF-268 CNS): 30.9 µM | GI50 (HOP-92 NSCLC): 10.3 µM | TGI (HOP-92 NSCLC): 23.4 µM | GI50 (SW-620 colon): 13.2 µM | TGI (SW-620 colon): 27.4 µM | GI50 (RPMI-8226 leukemia): 3.02 µM | TGI (RPMI-8226 leukemia): 17.5 µM | GI50 (U251 CNS): 11.8 µM | TGI (U251 CNS): 28.4 µM | GI50 (SF-295 CNS): 12.4 µM | TGI (SF-295 CNS): 24.8 µM | GI50 (IGROV1 ovarian): 13.8 µM | TGI (IGROV1 ovarian): 27.5 µM | GI50 (786-0 renal): 11.9 µM | TGI (786-0 renal): 28.3 µM | GI50 (SNB-19 CNS): 13.4 µM | TGI (SNB-19 CNS): 26.1 µM | GI50 (SK-MEL-2 melanoma): 13.2 µM | TGI (SK-MEL-2 melanoma): 26.9 µM | GI50 (COLO 205 colon): 12.4 µM | TGI (COLO 205 colon): 29.5 µM | GI50 (CCRF-CEM leukemia): 11.5 µM | TGI (CCRF-CEM leukemia): 29.3 µM | GI50 (DU-145 prostate): 14.8 µM | TGI (DU-145 prostate): 30.4 µM | GI50 (UACC-257 melanoma): 12.4 µM | TGI (UACC-257 melanoma): 27.3 µM | GI50 (OVCAR-3 ovarian): 13.5 µM | TGI (OVCAR-3 ovarian): 27.2 µM | GI50 (PC-3 prostate): 3.45 µM | TGI (PC-3 prostate): 17 µM | GI50 (NCI-H460 lung): 12.9 µM | TGI (NCI-H460 lung): 27.6 µM | GI50 (NCI-H522 lung): 11.5 µM | TGI (NCI-H522 lung): 25.9 µM | GI50 (NCI-H226 lung): 11.8 µM | TGI (NCI-H226 lung): 25.3 µM | GI50 (HCT-15 colon): 10.7 µM | TGI (HCT-15 colon): 22.4 µM | GI50 (SR leukemia): 3.12 µM | TGI (SR leukemia): 98.8 µM | GI50 (SNB-75 CNS): 7.02 µM | TGI (SNB-75 CNS): 22.4 µM | GI50 (SK-MEL-28 melanoma): 12.9 µM | TGI (SK-MEL-28 melanoma): 25.8 µM | GI50 (T-47D breast): 7.62 µM | TGI (T-47D breast): 25.2 µM | GI50 (MDA-MB-435): 12.8 µM | TGI (MDA-MB-435): 27.1 µM | GI50 (RXF 393 renal): 6.45 µM | TGI (RXF 393 renal): 19.5 µM | GI50 (MALME-3M melanoma): 11.7 µM | TGI (MALME-3M melanoma): 24 µM | GI50 (HOP-62 NSCLC): 14.1 µM | TGI (HOP-62 NSCLC): 29.5 µM | GI50 (ACHN renal): 12.5 µM | TGI (ACHN renal): 25 µM | GI50 (LOX IMVI melanoma): 12.7 µM | TGI (LOX IMVI melanoma): 25.2 µM | GI50 (MDA-MB-231 breast): 11.5 µM | TGI (MDA-MB-231 breast): 23.7 µM
